According to ChEMBL document CHEMBL4049435, “Development of a Series of Kynurenine 3-Monooxygenase Inhibitors Leading to a Clinical Candidate for the Treatment of Acute Pancreatitis” (J Med Chem, 2017):

Tests used:
[1] = Protein binding in Han-Wistar rat plasma at 1 mg/kg, iv by LC-MS/MS analysis; format: ADME, organism-based; conditions: read-out: PPB (converted)
[2] = Half life in Han-Wistar rat at 1 mg/kg, iv by LC-MS/MS analysis; format: ADME, organism-based; conditions: in vivo
[3] = Clearance in Han-Wistar rat blood at 1 mg/kg, iv by LC-MS/MS analysis; format: ADME, organism-based; conditions: whole blood
[4] = Volume of distribution at steady state in Han-Wistar rat at 1 mg/kg, iv by LC-MS/MS analysis; format: ADME, organism-based; conditions: in vivo, read-out: Vdss
[5] = Half life of the compound at pH 6 under oxidative condition; format: physicochemical
[6] = Stability of the compound in presence of light measured after 12 hrs; format: physicochemical; conditions: read-out: Stability
[7] = Lipophilicity, log D of the compound at pH 7.4 by RP-HPLC analysis; format: physicochemical; conditions: buffer
[8] = biological target: T1, Kynurenine 3-monooxygenase (Homo sapiens, UniProt O15229); assay: Inhibition of full length human GST-tagged KMO expressed in baculovirus infected Sf9 insect cell membranes using kynurenine as substrate measured after 1 hr by RapidFire high-throughput mass spectrometric analysis
serum albumin = serum albumin (Homo sapiens, UniProt P02768); assay: Binding affinity to human serum albumin by HPLC analysis; format: ADME; conditions: read-out: PB (converted)
[9] = Permeability of the compound by PAMPA; format: physicochemical; conditions: read-out: permeability
[10] = Protein binding in human plasma; format: ADME, cell-free; conditions: read-out: PPB (converted)
[11] = biological target: T1, Kynurenine 3-monooxygenase
[12] = Solubility of the compound in saline measured after 24 hrs; format: physicochemical

Sequence of serum albumin (P02768 whole entry): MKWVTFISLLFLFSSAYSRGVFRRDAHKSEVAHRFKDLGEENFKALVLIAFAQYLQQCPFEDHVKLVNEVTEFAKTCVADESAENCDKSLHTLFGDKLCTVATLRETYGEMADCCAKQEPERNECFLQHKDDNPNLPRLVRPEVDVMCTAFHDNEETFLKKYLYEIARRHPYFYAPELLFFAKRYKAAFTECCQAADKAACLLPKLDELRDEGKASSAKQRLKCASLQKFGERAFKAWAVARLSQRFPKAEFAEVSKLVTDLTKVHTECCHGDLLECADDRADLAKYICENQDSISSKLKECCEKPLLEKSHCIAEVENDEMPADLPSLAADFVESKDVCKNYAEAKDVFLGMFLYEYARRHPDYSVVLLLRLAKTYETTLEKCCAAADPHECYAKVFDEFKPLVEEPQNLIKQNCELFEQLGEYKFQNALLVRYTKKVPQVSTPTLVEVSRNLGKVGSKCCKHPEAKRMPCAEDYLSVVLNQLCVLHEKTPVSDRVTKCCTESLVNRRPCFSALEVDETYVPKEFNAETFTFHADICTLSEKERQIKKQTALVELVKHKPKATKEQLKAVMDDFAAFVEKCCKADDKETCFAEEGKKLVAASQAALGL
T1 sequence (O15229 whole entry): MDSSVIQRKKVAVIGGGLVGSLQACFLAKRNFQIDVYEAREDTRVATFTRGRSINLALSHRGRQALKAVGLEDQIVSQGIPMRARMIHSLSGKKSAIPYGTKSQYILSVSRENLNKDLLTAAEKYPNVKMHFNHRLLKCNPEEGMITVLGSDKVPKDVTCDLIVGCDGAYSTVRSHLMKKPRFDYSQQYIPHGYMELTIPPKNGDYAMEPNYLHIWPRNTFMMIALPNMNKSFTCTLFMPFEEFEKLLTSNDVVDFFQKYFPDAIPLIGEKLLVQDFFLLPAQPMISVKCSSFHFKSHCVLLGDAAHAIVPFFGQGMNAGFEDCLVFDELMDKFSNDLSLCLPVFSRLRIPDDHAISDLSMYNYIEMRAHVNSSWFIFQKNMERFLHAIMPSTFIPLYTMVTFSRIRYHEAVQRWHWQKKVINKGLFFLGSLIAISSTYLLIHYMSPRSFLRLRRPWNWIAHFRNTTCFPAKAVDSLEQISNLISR

O=C(O)CCn1c(=O)oc2cc(OC3CC3)c(Cl)cc21
fraction unbound [1]: 0.097 | half-life [2]: 0.39 h | clearance [3]: 9.4 mL/min/kg | Vd [4]: 0.29 L/kg | half-life [5]: > 1000 h | remaining at 12 h [6]: 100%

C[C@@H](Oc1cc2ccn(CCC(=O)O)c2cc1Cl)c1ccccn1
logD [7]: 2.17

NC(CO)(CO)CO.O=C(O)CCn1c(=O)oc2cc(OCc3ccccn3)c(Cl)cc21
IC50 [8]: 3.16 nM | fraction unbound (serum albumin): 0.126 | Papp [9]: 1.1 ×10⁻⁶ cm/s | logD [7]: 1.32 | fraction unbound [10]: 0.074 | IC50 [11]: 5010 nM

O=C(O)CCn1c(=O)oc2cc(Cl)c(Cl)cc21
fraction unbound (serum albumin): 0.037 | Papp [9]: 2.4 ×10⁻⁶ cm/s | logD [7]: 1.61 | fraction unbound [10]: 0.018 | fraction unbound [1]: 0.083 | half-life [2]: 4.3 h | clearance [3]: 4.3 mL/min/kg | Vd [4]: 0.28 L/kg | half-life [5]: 334 h | remaining at 12 h [6]: 41%

NC(CO)(CO)CO.O=C(O)CCn1c(=O)oc2cc(OCC3CCC3)c(Cl)cc21
fraction unbound (serum albumin): 0.019 | Papp [9]: 1.2 ×10⁻⁶ cm/s | logD [7]: 2.9 | fraction unbound [10]: 0.019

Cc1cccc([C@@H](C)Oc2cc3oc(=O)n(CCC(=O)O)c3cc2Cl)n1.NC(CO)(CO)CO
fraction unbound (serum albumin): 0.068 | Papp [9]: 2.1 ×10⁻⁶ cm/s | logD [7]: 2.12

C[C@@H](Oc1cc2onc(CCC(=O)O)c2cc1Cl)c1ccccn1.NC(CO)(CO)CO
logD [7]: 1.99 | fraction unbound [10]: 0.022 | solubility at 24 h [12]: > 7440 µg/mL

O=C(O)CCn1c(=O)oc2cc(OCC3CC3)c(Cl)cc21
fraction unbound [1]: 0.098 | half-life [2]: 0.68 h | clearance [3]: 4.1 mL/min/kg | Vd [4]: 0.26 L/kg | half-life [5]: > 1000 h | remaining at 12 h [6]: 105%

CC(C)Cc1cc2oc(=O)n(CCC(=O)O)c2cc1Cl.NC(CO)(CO)CO
fraction unbound (serum albumin): 0.008 | Papp [9]: < 1 ×10⁻⁶ cm/s | logD [7]: 3.03

C[C@H](Oc1cc2oc(=O)n(CCC(=O)O)c2cc1Cl)c1ccccn1.NC(CO)(CO)CO
fraction unbound (serum albumin): 0.084 | Papp [9]: < 0.3 ×10⁻⁶ cm/s | logD [7]: 1.79

CCOc1cc2oc(=O)n(CCC(=O)O)c2cc1Cl
fraction unbound [1]: 0.184 | half-life [2]: 0.43 h | clearance [3]: 16 mL/min/kg | Vd [4]: 0.36 L/kg | half-life [5]: > 1000 h | remaining at 12 h [6]: 99.5%

C[C@@H](Oc1cc2onc(CCC(=O)O)c2cc1Cl)c1ccc(Cl)cn1.NC(CO)(CO)CO
fraction unbound (serum albumin): 0.01 | logD [7]: 2.91 | fraction unbound [10]: 0.002 | solubility at 24 h [12]: > 620 µg/mL

C[C@@H](Oc1cc2c(cc1Cl)N(CCC(=O)O)C(=O)CO2)c1ccccn1
logD [7]: 1.56 | fraction unbound [10]: 0.075

COc1cc2oc(=O)n(CCC(=O)O)c2cc1Cl
fraction unbound (serum albumin): 0.11 | Papp [9]: < 0.3 ×10⁻⁶ cm/s

O=C(O)CCn1c(=O)oc2cc(OCc3ccccc3)c(Cl)cc21
fraction unbound (serum albumin): 0.017 | logD [7]: 2.71

Cc1ccc([C@@H](C)Oc2cc3oc(=O)n(CCC(=O)O)c3cc2Cl)nc1.NC(CO)(CO)CO
Papp [9]: 2.2 ×10⁻⁶ cm/s | logD [7]: 2.02 | fraction unbound [10]: 0.022

C[C@@H](Oc1cc2oc(=O)n(CCC(=O)O)c2cc1Cl)c1ncccn1.NC(CO)(CO)CO
fraction unbound (serum albumin): 0.409 | Papp [9]: < 0.3 ×10⁻⁶ cm/s | logD [7]: 0.83

C[C@@H](Oc1cc2oc(=O)n(CCC(=O)O)c2cc1Cl)c1ccccn1.NC(CO)(CO)CO
fraction unbound (serum albumin): 0.067 | Papp [9]: 0.3 to 2 ×10⁻⁶ cm/s | logD [7]: 1.71 | fraction unbound [10]: 0.119 | solubility at 24 h [12]: > 9500 µg/mL

C[C@@H](Oc1cc2onc(CCC(=O)O)c2cc1Cl)c1ccc(F)cn1
fraction unbound (serum albumin): 0.017 | logD [7]: 2.47

CC(Oc1cc2oc(=O)n(CCC(=O)O)c2cc1Cl)c1ccccn1.NC(CO)(CO)CO (configuration not stated)
fraction unbound (serum albumin): 0.129 | Papp [9]: < 0.3 ×10⁻⁶ cm/s | logD [7]: 1.86 | fraction unbound [10]: 0.183

Cc1ccc([C@@H](C)Oc2cc3onc(CCC(=O)O)c3cc2Cl)nc1
fraction unbound [1]: 0.009 | half-life [2]: 3.6 h | clearance [3]: 1.1 mL/min/kg | Vd [4]: 0.31 L/kg | half-life [5]: > 1000 h | remaining at 12 h [6]: 96.5%

CCOc1cc2oc(=O)n(CCC(=O)O)c2cc1Cl.NC(CO)(CO)CO
fraction unbound (serum albumin): 0.113 | Papp [9]: < 1 ×10⁻⁶ cm/s | logD [7]: 1.49 | fraction unbound [10]: 0.042 | solubility at 24 h [12]: > 1880 µg/mL

CCc1cc2oc(=O)n(CCC(=O)O)c2cc1Cl.NC(CO)(CO)CO
fraction unbound (serum albumin): 0.026 | Papp [9]: 1 to 2.2 ×10⁻⁶ cm/s | logD [7]: 1.94 | fraction unbound [10]: 0.013

Cc1ccnc([C@@H](C)Oc2cc3oc(=O)n(CCC(=O)O)c3cc2Cl)c1.NC(CO)(CO)CO
fraction unbound (serum albumin): 0.056 | Papp [9]: < 0.3 ×10⁻⁶ cm/s | logD [7]: 2.15

C[C@@H](Oc1cc2sc(=O)n(CCC(=O)O)c2cc1Cl)c1ccccn1
logD [7]: 1.81

NC(CO)(CO)CO.O=C(O)CCn1c(=O)oc2cc(OCCN3CCCC3)c(Cl)cc21
fraction unbound (serum albumin): 0.849 | Papp [9]: < 0.3 ×10⁻⁶ cm/s | logD [7]: -0.26

Cc1cc2oc(=O)n(CCC(=O)O)c2cc1Cl.NC(CO)(CO)CO
fraction unbound (serum albumin): 0.05 | Papp [9]: 0.3 to 1 ×10⁻⁶ cm/s | logD [7]: 1.26 | solubility at 24 h [12]: > 127000 µg/mL | IC50 [11]: 631 nM

C[C@@H](Oc1cc2oc(=O)n(CCC(=O)O)c2cc1Cl)c1ncco1.NC(CO)(CO)CO
fraction unbound (serum albumin): 0.227 | Papp [9]: < 0.3 ×10⁻⁶ cm/s | logD [7]: 1.11

Cc1cc2oc(=O)n(CCC(=O)O)c2cc1Cl
fraction unbound [10]: 0.024 | fraction unbound [1]: 0.045 | half-life [2]: 3.7 h | clearance [3]: 4.7 mL/min/kg | Vd [4]: 0.52 L/kg | half-life [5]: > 1000 h | remaining at 12 h [6]: 100%

C[C@@H](Oc1cc2onc(CCC(=O)O)c2cc1Cl)c1ccc(Cl)cn1
fraction unbound [1]: 0.003 | half-life [2]: 8.7 h | clearance [3]: 0.35 mL/min/kg | Vd [4]: 0.26 L/kg | half-life [5]: > 1000 h | remaining at 12 h [6]: 99.5%

Cc1ccc([C@@H](C)Oc2cc3onc(CCC(=O)O)c3cc2Cl)nn1
fraction unbound (serum albumin): 0.108 | logD [7]: 2.97 | fraction unbound [10]: 0.071 | fraction unbound [1]: 0.067 | half-life [2]: 1.5 h | clearance [3]: 12 mL/min/kg | Vd [4]: 1.1 L/kg | half-life [5]: > 1000 h | remaining at 12 h [6]: 85.2% | IC50 [11]: 3.16 nM

COCCOc1cc2oc(=O)n(CCC(=O)O)c2cc1Cl.NC(CO)(CO)CO
fraction unbound (serum albumin): 0.558 | Papp [9]: < 0.3 ×10⁻⁶ cm/s | logD [7]: 0.88 | fraction unbound [10]: 0.293

C[C@@H](Oc1cc2cnn(CCC(=O)O)c2cc1Cl)c1ccccn1
logD [7]: 1.7 | fraction unbound [10]: 0.099

C[C@@H](Oc1cc2oc(=O)n(CCC(=O)O)c2cc1Cl)c1ccccn1
fraction unbound [1]: 0.215 | half-life [2]: 5.6 h | clearance [3]: 16.8 mL/min/kg | Vd [4]: 2.96 L/kg | half-life [5]: > 1000 h | remaining at 12 h [6]: 99.2%

NC(CO)(CO)CO.O=C(O)CCn1c(=O)oc2cc(Cl)c(Cl)cc21
solubility at 24 h [12]: 270 µg/mL

Cc1ccc([C@@H](C)Oc2cc3onc(CCC(=O)O)c3cc2Cl)nc1.NC(CO)(CO)CO
fraction unbound (serum albumin): 0.016 | logD [7]: 2.42 | fraction unbound [10]: 0.003 | solubility at 24 h [12]: > 860 µg/mL

Cc1ccc([C@@H](C)Oc2cc3onc(CCC(=O)O)c3cc2Cl)nn1.NC(CO)(CO)CO
solubility at 24 h [12]: 230 µg/mL

O=C(O)CCn1c(=O)oc2cc(OCc3ccccn3)c(Cl)cc21
Ki [8]: 1 nM

C[C@@H](Oc1cc2oc(=O)n(CCC(=O)O)c2cc1Cl)c1ccc(F)cn1.NC(CO)(CO)CO
fraction unbound (serum albumin): 0.06 | Papp [9]: 3.1 ×10⁻⁶ cm/s | logD [7]: 1.98

C[C@@H](Oc1cc2oc(=O)n(CCC(=O)O)c2cc1Cl)c1ccc(Cl)cn1.NC(CO)(CO)CO
fraction unbound (serum albumin): 0.021 | Papp [9]: 6 ×10⁻⁶ cm/s | logD [7]: 2.65 | fraction unbound [10]: 0.01
